Data published in patent US10182994B2, “Nanoparticulate complex of nicotine and cerium oxide and use thereof” (priority 2014, dated 2019).

Test system: neurons that have low expression of ATG7
Settings: pretreatment of neurons with lentiviral shRNA knock-down of ATG7; neurotoxin MPP+
Source text: A lentiviral shRNA was used to knock-down the expression of ATG7, a component of the autophagy system.

## CN1CCCC1c1cccnc1 (stereo not shown) [nicotine]
  prevention of MPP+ induced cellular damage: prevent MPP+ induced cellular damage
